Laboratory results published in patent publication US7335814B2, “Transgenic cells expressing glucosyltransferase nucleic acids” (The University of York, priority 2000, dated 2008).

Key:
recombinant GTase A320 = molecular target: T1, recombinant GTase A320 (Arabidopsis thaliana, UniProt Q9LVF0); experiment: Specific activity of recombinant GTase producing glucose ester against lignin precursors (HPLC); type: biochemical; conditions: 5 mM UDPG, 0.2 μg GTase, 200 μl, 20° C., 30 min
T1 construct: made in house; host or cells: E. coli
T1 sequence (Q9LVF0 1-496): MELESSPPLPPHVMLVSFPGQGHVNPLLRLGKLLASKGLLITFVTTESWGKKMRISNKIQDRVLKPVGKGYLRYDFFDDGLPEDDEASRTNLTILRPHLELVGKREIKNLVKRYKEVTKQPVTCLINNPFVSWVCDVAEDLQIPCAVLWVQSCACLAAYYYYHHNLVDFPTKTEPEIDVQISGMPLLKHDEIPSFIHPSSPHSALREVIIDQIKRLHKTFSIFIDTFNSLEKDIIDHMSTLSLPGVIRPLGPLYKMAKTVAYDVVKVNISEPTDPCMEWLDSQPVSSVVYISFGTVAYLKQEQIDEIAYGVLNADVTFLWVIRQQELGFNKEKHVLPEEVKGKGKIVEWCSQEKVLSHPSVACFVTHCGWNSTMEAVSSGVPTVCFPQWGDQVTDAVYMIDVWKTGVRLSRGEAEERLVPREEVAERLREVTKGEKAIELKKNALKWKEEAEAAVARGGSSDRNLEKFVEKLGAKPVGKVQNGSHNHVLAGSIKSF

recombinant GTase A062 = molecular target: T2, recombinant GTase A062 (Arabidopsis thaliana, UniProt Q9LR44); experiment: as above; type: biochemical; conditions: 0.5 ml of potential substrates, 5 mM UDPG, 0.2 μg GTase, 200 μl, 20° C., 30 min
T2 construct: made in house; host or cells: E. coli
T2 sequence (Q9LR44 1-469): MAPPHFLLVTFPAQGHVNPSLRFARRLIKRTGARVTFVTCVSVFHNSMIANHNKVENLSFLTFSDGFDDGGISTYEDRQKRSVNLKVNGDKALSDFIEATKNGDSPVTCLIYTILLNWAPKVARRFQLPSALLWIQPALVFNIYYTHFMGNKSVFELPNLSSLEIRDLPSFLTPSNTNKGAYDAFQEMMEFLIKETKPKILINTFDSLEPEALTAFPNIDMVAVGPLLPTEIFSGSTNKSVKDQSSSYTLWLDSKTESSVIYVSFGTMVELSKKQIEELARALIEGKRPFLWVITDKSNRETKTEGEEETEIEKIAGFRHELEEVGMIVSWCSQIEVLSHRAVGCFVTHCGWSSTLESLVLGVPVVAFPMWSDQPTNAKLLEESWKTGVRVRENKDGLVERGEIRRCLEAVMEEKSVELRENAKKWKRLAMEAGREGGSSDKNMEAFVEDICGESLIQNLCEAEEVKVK

recombinant GTase A233 = molecular target: T3, recombinant GTase A233 (Arabidopsis thaliana, UniProt Q8W491); experiment: Specific activity of recombinant GTase producing O-glucosides against lignin precursors (HPLC); type: biochemical; conditions: 30° C.; ND = not detected
T3 construct: made in house; host or cells: E. coli

recombinant GTase A407 = molecular target: T4, recombinant GTase A407 (Arabidopsis thaliana, UniProt O81498); experiment: as above; type: biochemical; conditions: 30° C.; ND = not detected
T4 construct: made in house; host or cells: E. coli
T4 sequence (O81498 1-481): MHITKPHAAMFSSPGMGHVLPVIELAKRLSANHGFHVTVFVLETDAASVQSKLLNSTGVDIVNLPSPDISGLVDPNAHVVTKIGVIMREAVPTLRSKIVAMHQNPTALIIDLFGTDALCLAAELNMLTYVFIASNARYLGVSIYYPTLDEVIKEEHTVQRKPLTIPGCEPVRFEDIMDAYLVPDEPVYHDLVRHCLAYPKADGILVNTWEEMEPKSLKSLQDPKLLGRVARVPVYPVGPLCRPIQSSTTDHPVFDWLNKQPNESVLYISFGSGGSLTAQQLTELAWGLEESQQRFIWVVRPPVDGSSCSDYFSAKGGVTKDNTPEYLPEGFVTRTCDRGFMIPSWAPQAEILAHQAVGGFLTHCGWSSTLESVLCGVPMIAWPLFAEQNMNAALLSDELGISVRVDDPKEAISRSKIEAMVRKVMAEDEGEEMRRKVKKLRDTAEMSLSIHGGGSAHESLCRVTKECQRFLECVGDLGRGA

recombinant GTase A41 = molecular target: T5, recombinant GTase A41 (Arabidopsis thaliana, UniProt Q5XF20); experiment: Kinetic studies (Michaelis-Menten) on recombinant GTase producing glucose esters; type: biochemical; conditions: glucose ester formation
T5 construct: made in house; host or cells: E. coli
T5 sequence (Q5XF20 7-490): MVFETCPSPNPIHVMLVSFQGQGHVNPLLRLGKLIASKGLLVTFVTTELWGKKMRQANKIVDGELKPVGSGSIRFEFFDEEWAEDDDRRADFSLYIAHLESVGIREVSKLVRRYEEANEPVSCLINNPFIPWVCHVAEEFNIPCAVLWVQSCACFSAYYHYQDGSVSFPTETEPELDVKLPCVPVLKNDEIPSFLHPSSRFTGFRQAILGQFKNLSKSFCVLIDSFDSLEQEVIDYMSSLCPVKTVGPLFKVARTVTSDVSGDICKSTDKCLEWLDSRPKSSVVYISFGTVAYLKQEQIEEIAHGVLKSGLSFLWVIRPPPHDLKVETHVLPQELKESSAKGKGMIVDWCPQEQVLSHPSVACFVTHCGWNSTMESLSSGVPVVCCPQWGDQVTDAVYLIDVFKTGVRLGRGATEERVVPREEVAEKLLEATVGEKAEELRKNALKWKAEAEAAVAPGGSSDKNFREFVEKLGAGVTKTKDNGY

recombinant GTase A911 = molecular target: T6, recombinant GTase A911 (Arabidopsis thaliana, UniProt O22182); experiment: as above; conditions: glucose ester formation
T6 sequence (O22182 1-456): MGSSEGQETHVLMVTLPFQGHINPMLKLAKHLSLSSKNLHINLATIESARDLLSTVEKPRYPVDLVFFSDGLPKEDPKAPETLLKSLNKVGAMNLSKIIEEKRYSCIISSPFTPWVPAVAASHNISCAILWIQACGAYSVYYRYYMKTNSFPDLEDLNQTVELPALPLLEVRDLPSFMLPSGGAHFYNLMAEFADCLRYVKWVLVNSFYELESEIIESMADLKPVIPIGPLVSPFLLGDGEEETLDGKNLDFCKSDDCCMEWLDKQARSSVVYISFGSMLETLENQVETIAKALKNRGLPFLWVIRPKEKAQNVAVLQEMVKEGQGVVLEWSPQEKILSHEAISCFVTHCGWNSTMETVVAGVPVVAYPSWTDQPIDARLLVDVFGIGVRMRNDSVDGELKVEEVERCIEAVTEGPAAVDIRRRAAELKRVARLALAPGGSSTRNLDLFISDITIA

COc1cc(/C=C/C(=O)O)ccc1O [Ferulic acid, ferulic acid]
Specific activity of A320 (substrate converted to glucose ester) (recombinant GTase A320): 0.54 nkat/mg | Specific activity of A062 (substrate converted to glucose ester) (recombinant GTase A062): 0.08 nkat/mg | Specific activity of A233 (substrate converted to 4-O-glucoside) (recombinant GTase A233): 0.37 nkat/mg | Specific activity of A407 (substrate converted to 4-O-glucoside) (recombinant GTase A407): 0.25 nkat/mg | Vmax (A41) (recombinant GTase A41): 11.35 nkat/mg | Vmax (A911) (recombinant GTase A911): 6.91 nkat/mg

O=C(O)/C=C/c1ccc(O)cc1 [p-coumaric acid]
Specific activity of A320 (substrate converted to glucose ester) (recombinant GTase A320): 0.05 nkat/mg | Specific activity of A062 (substrate converted to glucose ester) (recombinant GTase A062): 2.54 nkat/mg | Specific activity of A233 (substrate converted to 4-O-glucoside) (recombinant GTase A233): 0.09 nkat/mg | Specific activity of A407 (substrate converted to 4-O-glucoside) (recombinant GTase A407): 0.01 nkat/mg
